From patent publication US9771369B2, “Compounds and methods for kinase modulation, and indications therefor” (Plexxikon Inc., priority 2014, dated 2017)

Experiments:
c-Kit kinase = c-Kit kinase (Homo sapiens (Human), UniProt P10721); assay: c-Kit biochemical assay (AlphaScreen kinase activity)
Method: Assays for biochemical cell-based activity of c-kit kinase are known in the art, for example, as described in U.S. Pat. Nos. 7,498,342 and 7,846,941, the disclosures of which are hereby incorporated by reference as it relates to such assays. The c-kit (or kinase domain thereof) is an active kinase in AlphaScreen. IC50 values are determined with respect to inhibition of c-Kit kinase activity, where inhibition of phosphorylation of a peptide substrate is measured as a function of compound concentration. Compounds to be tested were dissolved in DMSO to a concentration of 30 mM. These were diluted 30 μl into 130 μl of DMSO (4 mM) and 1 μl was added to an assay plate. These were then serially diluted 1:3 (50 μl to 100 μl DMSO) for a total of 8 points. Plates were prepared such that each kinase reaction is 30 μl in 1× kinase buffer (50 mM HEPES, pH 7.2, 5 mM MgCl2, 5 mM MnCl2, 0.01% NP-40, 0.2% BSA), 5% DMSO and 10 μM ATP. Substrate was 100 nM biotin-(E4Y)3 (Open Source Biotech, Inc.). C-kit kinase was at 0.1 ng per sample. After incubation of the kinase reaction for 1 hour at room temperature, 5 μl of donor beads (Streptavidin coated beads (Perkin Elmer Life Science) final concentration 1 μg/ml) in stop buffer (50 mM EDTA in 1× kinase buffer) was added, the sample was mixed and incubated for 30 minutes at room temperature before adding […] of acceptor beads (PY30 coated beads (Perkin Elmer Life Science) final concentration 1 μg/ml) in stop buffer. The samples were incubated for 60 minutes at room temperature and the signal per well was read on AlphaQuest reader. Phosphorylated substrate results in binding of the PY30 antibody and association of the donor and acceptor beads such that signal correlates with kinase activity. The signal vs. compound concentration was used to determine the IC50.
Compounds were also tested using a similar assay with a 10-fold higher ATP concentration. For these samples, compounds to be tested were dissolved in DMSO to a concentration of 30 mM. These were diluted 30 μl into 130 μl of DMSO (4 mM) and 1 μl was added to an assay plate. These were then serially diluted 1:3 (50 μl to 100 μl DMSO) for a total of 8 points. Plates were prepared such that each kinase reaction is 30 μl in 1× kinase buffer (25 mM HEPES, pH 7.5, 2 mM MgCl2, 2 mM MnCl2, 0.01% […], 1 mM DTT, and 0.001% BSA), 5% DMSO and 100 μM ATP. Substrate was 30 nM biotin-(E4Y)10 (Upstate Biotech, Cat#12-440). C-kit kinase was at 1 ng per sample. After incubation of the kinase reaction for 1 hour at room temperature, 5 μl of donor beads (Streptavidin coated beads (Perkin Elmer Life Science) final concentration 10 μg/ml) in stop buffer (25 mM HEPES pH 7.5, 100 mM EDTA, 0.3% BSA) was added, the sample was mixed and incubated for 30 minutes at room temperature before adding 5 μl of acceptor beads (PY30 coated beads (Perkin Elmer Life Science) final concentration 10 μg/ml) in stop buffer. The samples were incubated for 60 minutes at room temperature and the signal per well was read on AlphaQuest or Envision reader (Perkin Elmer Life Science). Phosphorylated substrate results in binding of the PY30 antibody and association of the donor and acceptor beads such that signal correlates with kinase activity. The signal vs. compound concentration was used to determine the IC50.
The c-kit enzyme used in the above assay was either obtained from Cell Signaling Technology (Cat. #7754) or was prepared as follows: A plasmid encoding kit (DNA and encoded protein sequences shown below) was engineered using common polymerase chain reaction (PCR) methods. Complementary DNA cloned from various human tissues were purchased from Invitrogen, and these were used as substrates in the PCR reactions. Specific custom synthetic oligonucleotide primers were designed to initiate the PCR product, and also to provide the appropriate restriction enzyme cleavage sites for ligation with the plasmids. […]

[1] = test system: BaF3-FL KIT D816V or BaF3-FL KIT V560G/D816V cell line; assay: Cell-based assays of c-Kit mutant kinase activity (cell proliferation, ATPlite); settings: at least one of the c-kit cell assays of Example 7
Method: The c-Kit mutant D816V inhibitors were assessed using an engineered BaF3-FL KIT D816V or BaF3-FL KIT V560G/D816V cell line. The BaF3-FL KIT D816V cell lines were created by introduction of KIT mutant (D816V) full length constructs that render the cells dependent on the introduced kinase for growth. Inhibitors of c-Kit mutant D816V kinase reduce or eliminate the mediated c-kit mutant D816V kinase activation, resulting in reduced cell proliferation of the BaF3-FL Kit mutant D816V cells. This inhibition is measured by the effect of compound concentration on cell growth to assess IC50 values. BaF3-FL KIT D816V cells were seeded at 1×10^4 cells per well of a 96 well cell culture plate in 50 μl of cell culture medium of RPMI Medium 1× (Invitrogen #11875-093) supplemented with 10% FBS (Invitrogen #10438), 1% Non Essential Amino Acids (Invitrogen #11140), 1% Penicillin Streptomycin (Invitrogen #15140), 1% L-Glutamine (Invitrogen #25030-081). Compounds were dissolved in DMSO at a concentration of 5 mM and were serially diluted 1:3 for a total of eight points and added to the cells to a final maximum concentration of 10 μM in 100 μl cell culture medium (final concentration 0.2% DMSO). Cells were also treated with Dasatinib as a positive control. The cells were incubated at 37° C., 5% CO2 for three days. ATPlite Buffer (Perkin Elmer #6016739) and substrate were equilibrated to room temperature, and enzyme/substrate Recombinant Firefly Luciferase/D-Luciferin was reconstituted. The cell plates were equilibrated to room temperature for 30 minutes, then lysed by addition of 25 μL per well of the ATPlite Reagent. The plate was mixed for 5 minutes on a plate shaker to lyse the cells. The plates were read on a Tecan Safire using Luminescence protocol modified to read 0.1s per well. The luminescence reading assesses the ATP content, which correlates directly with cell number such that the reading as a function of compound concentration is used to determine the IC50 value.
Plasmids P75635 and P75565 were engineered for mammalian cell expression. In both plasmids, full-length human v-kit Hardy-Zuckerman 4 feline sarcoma viral oncogene homolog gene (NCBI accession NM_000222, KIT, residues M1-V976) was subcloned into the pCI-Neo vector (Promega E1841). Plasmid P75635 contains the mutation of residue Aspartic acid 816 to Valine. Plasmid P75565 contains the double mutation of residues Valine 560 to Glycine and Aspartic acid 816 to Valine. The pCI-neo Mammalian Expression Vector carries the human cytomegalovirus (CMV) immediate-early enhancer/promoter region to promote constitutive expression of KIT and contains the neomycin phosphotransferase gene, a selectable marker.
It is understood that the results of these assays may vary as assay conditions are varied. Inhibition levels determined under the conditions described herein represent a relative activity for the compounds tested under the specific conditions employed. The cell based assays are likely to show variability due to the complexity of the system and the sensitivity thereof to any changes in the assay conditions. […] In some instances, the compounds were not tested in all of the assays, or assay results were not valid.

c-kit mutant D816V = c-kit mutant D816V (Homo sapiens (Human), UniProt P10721, D816V/DEL694-753); assay: c-Kit mutant D816V biochemical assay (AlphaScreen kinase activity)
c-kit mutant D816V, sequence (P10721 other isoform, or with tags, fused parts or gaps D816V/del 694-753): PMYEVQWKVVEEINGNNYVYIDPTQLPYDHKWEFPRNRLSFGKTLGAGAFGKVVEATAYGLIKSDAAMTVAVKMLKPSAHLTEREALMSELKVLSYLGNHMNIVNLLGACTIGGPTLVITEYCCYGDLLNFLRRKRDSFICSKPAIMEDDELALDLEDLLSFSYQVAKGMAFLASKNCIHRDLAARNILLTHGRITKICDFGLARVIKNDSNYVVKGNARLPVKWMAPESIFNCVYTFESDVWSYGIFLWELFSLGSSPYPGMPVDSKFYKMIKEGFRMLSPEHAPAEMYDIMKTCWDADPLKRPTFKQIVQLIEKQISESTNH
Method: The c-kit mutant D816V (or kinase domain thereof) is an active kinase in AlphaScreen. IC50 values are determined with respect to inhibition of c-Kit mutant D816V kinase activity, where inhibition of phosphorylation of a peptide substrate is measured as a function of compound concentration. Compounds to be tested were dissolved in DMSO to a concentration of 30 mM. These were diluted […] of DMSO (4 mM) and 1 μl was added to an assay plate. These were then serially diluted 1:3 (50 μl to […] DMSO) for a total of 8 points. Plates were prepared such that each kinase reaction is […] in 1× kinase buffer (25 mM HEPES, pH 7.2, 8 mM MgCl2, 2 mM MnCl2, 50 mM NaCl, 0.01% Brij, 1 mM DTT, 0.01% BSA), 5% DMSO and 10 μM ATP. Substrate was 30 nM biotin-(E4Y)10 (EMD Millipore, Cat#12-440). C-kit mutant D816V kinase was at 0.75 ng per sample. After incubation of the kinase reaction for 30 minutes at room temperature, 5 μl of donor beads (Streptavidin coated beads (Perkin Elmer Life Science) final concentration 7.5 μg/ml) in stop buffer (25 mM Hepes pH 7.5, 100 mM EDTA, 0.01% BSA) was added, the sample was mixed and incubated for 30 minutes at room temperature before adding […] of acceptor beads (PY30 coated beads (Perkin Elmer Life Science) final concentration 7.5 μg/ml) in stop buffer. The samples were incubated for 60 minutes at room temperature and the signal per well was read on EnVision reader. Phosphorylated substrate results in binding of the PY30 antibody and association of the donor and acceptor beads such that signal correlates with kinase activity. The signal vs. compound concentration was used to determine the IC50.
Recombinant c-kit mutant D816V (residues 551-934, kinase insertion domain residues 694-753 deleted) with a 6×-histidine N-terminal tag (SEQ ID NO: 3) was expressed in E. coli Arctic Express (DE3) RIL (Stratagene). Cells were grown in Terrific Broth (TB) media to an OD600 of 0.6 at 37° C. at which temperature was reduced to 10° C., protein was induced with 1.0 mM IPTG for 18 hours and harvested by centrifugation at 8000×g for 30 minutes. Cells were re-suspended in 0.1M KPO4 pH 8.0, 250 mM NaCl, 10% Glycerol, 0.75% NP-40, 25 mM Imidazole, 5 mM BME with 0.2 mg/ml Lysosyme, 2.0 mM PMSF, 25 μg/ml DNAse I, incubated in ice for 30 minutes and lyzed with a cell disruptor (MicroFluidics). The lysate was clarified by centrifugation at 30,000×g for 2 hours. The protein was captured with Talon resin (Clontech). Contaminating proteins were washed off with 25 mM Tris-HCl pH 8.3, 250 mM NaCl, 15% Glycerol, 1% Triton X-100, and protein eluted using 100 mM EDTA. The protein was further purified using Gel Filtration column 26/600 Superdex 300 (GE) in 50 mM Tris-HCl , pH 8.0, 250 mM NaCl, 15% Glycerol, 5 mM BME. The protein was aliquoted and flash-frozen in liquid Nitrogen.

c-Kit kinase, sequence (P10721 26-976): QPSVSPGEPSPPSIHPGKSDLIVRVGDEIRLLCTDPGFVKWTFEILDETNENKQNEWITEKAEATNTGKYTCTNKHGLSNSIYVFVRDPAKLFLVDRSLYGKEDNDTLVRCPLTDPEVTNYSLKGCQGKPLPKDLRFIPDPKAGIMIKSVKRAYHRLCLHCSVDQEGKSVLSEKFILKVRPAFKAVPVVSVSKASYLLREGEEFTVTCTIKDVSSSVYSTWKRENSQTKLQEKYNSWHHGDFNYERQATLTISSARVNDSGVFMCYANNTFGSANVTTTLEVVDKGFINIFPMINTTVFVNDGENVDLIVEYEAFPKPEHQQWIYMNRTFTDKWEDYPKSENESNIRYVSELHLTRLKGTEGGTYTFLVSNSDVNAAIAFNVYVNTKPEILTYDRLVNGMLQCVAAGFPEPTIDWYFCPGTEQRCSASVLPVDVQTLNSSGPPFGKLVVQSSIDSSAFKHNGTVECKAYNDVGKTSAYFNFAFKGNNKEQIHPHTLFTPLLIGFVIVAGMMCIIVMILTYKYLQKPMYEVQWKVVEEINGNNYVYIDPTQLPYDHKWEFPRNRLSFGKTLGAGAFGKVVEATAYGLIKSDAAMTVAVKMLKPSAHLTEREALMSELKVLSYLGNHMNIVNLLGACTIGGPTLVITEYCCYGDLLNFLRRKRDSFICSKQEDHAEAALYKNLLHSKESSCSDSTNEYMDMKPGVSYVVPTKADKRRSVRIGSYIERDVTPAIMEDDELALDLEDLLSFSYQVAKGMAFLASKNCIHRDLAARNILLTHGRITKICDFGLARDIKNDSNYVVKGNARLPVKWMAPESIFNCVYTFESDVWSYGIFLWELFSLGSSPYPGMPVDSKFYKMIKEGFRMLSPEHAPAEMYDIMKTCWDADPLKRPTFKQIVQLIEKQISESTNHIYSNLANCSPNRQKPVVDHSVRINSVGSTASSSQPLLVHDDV

Compound | IC50 (c-Kit kinase) | IC50 [1] | IC50 (c-kit mutant D816V)
Cc1[nH]c(C2CCN(c3ncnc4[nH]c(-c5ccncc5)cc34)CC2)nc1-c1ccccc1 [P-3001, 4-[4-(5-methyl-4-phenyl-1H-imidazol-2-yl)-1-piperidyl]-6-(4-pyridyl)-7H-pyrrolo[2,3-d]pyrimidine] | 0.0001 to 1 µM | < 10 µM | –
Cc1nc(C2CCN(c3ncnc4[nH]c(-c5cccc(Cl)c5)cc34)CC2)[nH]c1-c1ccccc1 [P-3082, 6-(3-chlorophenyl)-4-[4-(4-methyl-5-phenyl-1H-imidazol-2-yl)-1-piperidyl]-7H-pyrrolo[2,3-d]pyrimidine] | – | < 10 µM | 0.0001 to 1 µM
COc1cc(-c2[nH]c(C3CCN(c4ncnc5[nH]c(-c6ccc(F)cc6)cc45)CC3)nc2C)ccc1C [P-3103, 6-(4-fluorophenyl)-4-[4-[5-(3-methoxy-4-methyl-phenyl)-4-methyl-1H-imidazol-2-yl]-1-piperidyl]-7H-pyrrolo[2,3-d]pyrimidine] | 1 to 10 µM | – | 0.0001 to 1 µM
COc1ccc(-c2[nH]c(C3CCN(c4ncnc5[nH]c(-c6ccc(F)cc6)cc45)CC3)nc2C(F)(F)F)cc1 [P-3147, 6-(4-fluorophenyl)-4-[4-[5-(4-methoxyphenyl)-4-(trifluoromethyl)-1H-imidazol-2-yl]-1-piperidyl]-7H-pyrrolo[2,3-d]pyrimidine] | – | < 10 µM | 0.0001 to 1 µM
Cc1cc2c(N3CCC(C)(c4nc(C)c(-c5ccc(Cl)cc5)[nH]4)CC3)ncnc2[nH]1 [P-3174, 4-[4-[5-(4-chlorophenyl)-4-methyl-1H-imidazol-2-yl]-4-methyl-1-piperidyl]-6-methyl-7H-pyrrolo[2,3-d]pyrimidine] | – | < 10 µM | 0.0001 to 1 µM
